According to patent US10174067B2, “Type of cytidine derivative and application thereof” (priority 2014, dated 2019):

Conditions: Day 22; single IP dose (mg/kg)
Description: To determine the growth inhibition effect and toxicity of the cytidine derivative samples of the present invention on the transplanted tumor of nude mice bearing colon cancer HCT-116.
The corresponding amount of test substance was taken in a 5 mL glass tube and dissolved in ethanol with a 5 mm magnetic stirrer for stirring. After dissolving completely, Cremophor EL was added with continuous stirring. The marked amount of saline was added and mixed evenly before use. The volume ratio of ethanol, Cremophor EL, and physiological saline was 5:5:90.
Varieties and lines; Balb/c Nude mice; level: SPF; sex: female.
4.2 Animal inoculation and grouping: Each nude mouse was inoculated subcutaneously with 0.1 mL of cell suspension (3×10^6 cell/mouse) at right side of hind limb in a sterile stale. When the tumor grew to about 60-150 mm^3, the nude mice with similar tumor volume and desirable shape were selected (it would be better to select single spherical shape, no irregular shape or multiple tumors grouped together) for grouping, 6 mice a group. The grouping is as follows:
The control group, namely the model control group, was injected with a mixture of ethanol, Cremophor EL, and saline (5:5:90).
Those mice were weighed three times a week.
All clinical symptoms of each animal should be recorded at the beginning of the test and during the test. The observations should be made at the same time each day.
An animal would be killed by CO2 when its weight loss was more than 20%, when it was about to die, or when its tumor volume exceeded 2800 mm^3. The tumor was separated and weighed, and the animal was autopsied and observed to evaluate and record whether there were pathological changes in the organs.
The data were expressed as Mean±SEM unless specially provided; Non-pairing T test was performed for the data between the two groups. P<0.05 was considered as significant difference.

For `Cl.Nc1ccn([C@@H]2O[C@H](CO)[C@@H](O)C2(F)F)c(=O)n1` [Compound G1, 2′deoxy-2′,2′-difluorocytidine hydrochloride, reference compound], the “Day 22 Mortality” value was 100%.
